Data on one molecule can be found in US20050014751A1, “Use of n-acyl homoserine lactones for the treatment of insulitis” (priority 2001, published 2005).

Molecules are shown by their SMILES. Where “and” joins values, the source holds several entries; their conditions need not be identical. Equal values may be shown once.

Experiment [1] relates to delayed type hypersensitivity response to SRBCs in Balb/c mice. The experiment in a line: Murine in vivo DTH response to SRBCs (footweight), oral OdDHL. Conditions: Balb/c mice immunised with 5×10^6 SRBCs. The protocol: Eight week old, female Balb/c mice were kept on a 12 hour light/dark cycle and fed food and water ad libitum. SRBCs in Alseviers solution (TCS Biologicals, SB069) were washed and centrifuged (800×g for 20 minutes at room temperature) three times with 0.9% NaCl in distilled water. Cells were counted using a haemocytometer. On day 0 animals were immunised intraperitoneally (IP) with 5×10^6 (low dose) or 5×10^8 (high dose) SRBCs in saline. On day 5, animals were challenged with 20 μl SRBCs at 5×10^9/ml in the left hind paw. The contralateral paw was injected with 20 μl saline alone. After 24 hours the animals were sacrificed with a rising concentration of CO2 and bled by cardiac puncture. The hind feet were severed at the ankle joint and weighed.
Animals were dosed po from day 0 to day 5 with OdDHL. OdDHL was suspended in 0.25% (wt/vol) cellosize (Boots Co. PLC, Nottingham UK) in distilled water containing 1.5% (vol/vol) Tween 80 (Registered Trade Mark, Sigma) for po dosing at 3, 10, 30 and 100 mg/kg. Animals received 0.1 ml po.
This manifests itself as an inflammatory response causing an increase in the size of the foot. Very little antibody is produced. OdDHL at 3, 10, 30 and 100 mg/kg caused a dose dependent increase in footweight of 37%, 60%, 100% and 93% respectively (see FIG. 5). Mice dosed with OdDHL had higher footweights when compared to vehicle dosed animals. The 30 and 100 mg/kg doses (** on graph) are significant as determined by Dunnett's multiple comparison's test after one-way analysis of variance (p<0.01). This assay is considered by the pharmaceutical industry to be […] dependent, indicating the effect of compound treatment on contra-regulating T-helper 1 lymphocytes.

In a further experiment the test system is murine splenocytes. Kind of experiment: ConA mitogen-stimulated proliferation of murine splenocytes. In kind it is cell-based, BALB/c mice. Conditions: ConA 1 μg/ml, 100,000 spleen cells, 1 mM to 0.1 μM. Here is the method: The concanavalin A (ConA) cell proliferation assay was used to assess the effect of homoserine lactone (HSL) compounds on T-cell activation and proliferation. Proliferation was assessed by the incorporation of [^3H]-thymidine into DNA. Eight-week-old female BALB/c mice were obtained from Harlan (Bicester, Oxon, UK) and given food and water ad libitum. Splenocyte suspensions were prepared by removing the spleens and placing them into. RPMI 1640 medium. The spleens were forced through 70-μm-pore-size wire gauzes using the plunger from a 5-ml syringe to produce a single cell suspension. The cells were pelleted by centrifugation, and erythrocytes were lysed with 0.017M Tris, 0.144M ammonium chloride buffer, pH 7.2. Leucocytes were washed twice with RPMI 1640 medium with 2% (vol/vol) foetal calf serum (FCS) and resuspended in complete cell culture medium (CTCM) consisting of RPMI 1640 medium with 5% FCS, 2 mM L-glutamine, and 5×10^−5 M 2-mercaptoethanol. […] After the addition of 25 μl of MicroScint-O (Packard) to each well the filters were counted with the Packard TopCount scintillation counter. […]
In the cell culture assays the number of cells used (mouse splenocytes and human PBMC) was initially optimised to 100,000 cells per well. The optimal dose of ConA of 1 μg/ml used in the cell proliferation assays was determined from ConA titration curves. […]

The next experiment deals with insulitis in NOD mice. The experiment in a line: Effect of OdDHL on insulitis in NOD mice (slide score). The class given is in vivo. Conditions: 3 times a week for four weeks. Here is the method: To investigate the effect of OdDHL on insulitis or type I diabetes mellitus, mice (NOD) with a genetic predisposition to develop IDDM (insulin dependent diabetes mellitus) were treated with OdDHL. The animals were dosed at […] intraperitoneally from 4 weeks of age, 3 times a week for four weeks. Insulitis was assessed at 14 weeks. In the table a score of 3 or more (DMSO and PBS) represents severe grade insulitis and 1.3 (OdDHL) represents little infiltration (a score of 1 would represent low grade peri-insulitis). The mice were scored according to the method of Beales et al (European Journal of Pharmacology 357(1998) 221-225).

The subject of a further experiment is diabetes in NOD mice. The experiment in a line: In vivo effects of CSA, anti-TNFα and OdDHL in the diabetes model. Conditions: OdDHL 30 mg/kg, 3 times per week for 4 weeks. The protocol: Dose regimes of Cyclosporin A, anti-TNFα antibody and OdDHL were compared in the diabetes model. NOD mice were dosed at 25 mg/kg on alternate days for 160 days following the methodology of Mori et al (Diabetologia (1986) 29: 244-247), the content of which is incorporated herein by reference, for the investigation of CSA, and Anti TNF at 12 mg per individual, 0.5 mg three times a week for 8 weeks in accordance with the method of Suk et al (J. Immunology (2001) 166: 4481-4489), the content of which is incorporated herein by reference, was used for TNFα. OdDHL was dosed at 30 mg/kg, 3 times per week for 4 weeks as above.

The nature of experiment [2]: Comparative assay performed in vivo (OdDHL vs CSA and dexamethasone). Conditions: compared with CSA and dexamethasone. The source says:
From this it is believed that a similar result will be achieved for insulitis.

A further experiment deals with murine spleen cells. Conditions: Infection and Immunity, vol.66, no.1, January 1998; cited from earlier work.

Turning to `CCCCCCCCCC(=O)CC(=O)N[C@H]1CCOC1=O` [OdDHL, N-(3-oxododecanoyl)-L-homoserine Lactone], the increase in footweight is given as 37% in experiment [1] (3 mg/kg po day 0 to day 5, vs vehicle); 60% in experiment [1] (10 mg/kg po day 0 to day 5, vs vehicle); 100% in experiment [1] (30 mg/kg po day 0 to day 5, vs vehicle, p<0.01); 93% in experiment [1] (100 mg/kg po day 0 to day 5, vs vehicle, p<0.01). Also, the “inhibition of splenocyte proliferation ([3H]-thymidine cpm, FIG. 6)” value with murine splenocytes is recorded as “inhibits splenocyte proliferation”. For the same molecule, in the experiment with insulitis in NOD mice (100 mg/kg intraperitoneally from 4 weeks of age, insulitis assessed at 14 weeks, one value per animal, 100 mg/kg), the “Slide Score (insulitis), individual animal” value was 1.936 and 1.478 and 1.154 and 1.000 and 1.418. Moreover, the “Slide Score (insulitis), Group Total” value with insulitis in NOD mice (100 mg/kg intraperitoneally, assessed at 14 weeks) was 6.986. Besides, in the experiment on insulitis in NOD mice (100 mg/kg intraperitoneally, assessed at 14 weeks, score of 3 or more = severe grade insulitis, 1 = low grade peri-insulitis, 100 mg/kg), the “Slide Score (insulitis), Group Mean” value was 1.397. In addition, in the experiment with diabetes in NOD mice, the “in vivo action compared to reported data of Mori (CSA) and Suk (anti-TNF)” value is reported as “more effective in vivo action than in vitro”. Besides, in experiment [2], the “comparative performance in vivo” value was “performed better than CSA and dexamethasone”. In the experiment on murine spleen cells, the “inhibition of concanavalin A mitogen stimulated proliferation of murine spleen cells” value was “inhibiting”.
